Results: patent US20230095836A1, “SUBSTITUTED 5,6-DIPHENYL-3(2H)-PYRIDAZINONES FOR USE AS FUNGICIDES” (FMC Corporation, priority 2020, published 2023)

Assays:
Format in all cases: in vivo
[1] = tested on: Zymoseptoria tritici; assay: Test A: test solution sprayed on wheat seedlings, inoculated next day with Zymoseptoria tritici (wheat leaf blotch); disease rating (100 = 100% disease control, 0 = no control; dash = not tested)
Protocol: The resulting test suspensions were then used in Tests A-F. The test solution was sprayed to the point of run-off on wheat seedlings. The following day the seedlings were inoculated with a spore suspension of Zymoseptoria tritici (the causal agent of wheat leaf blotch) and incubated in a saturated atmosphere at 24° C. for 48 h, and then moved to a growth chamber at 20° C. for 17 days, after which time disease ratings were made. A rating of 100 indicates 100% disease control and a rating of 0 indicates no disease control (relative to the controls). A dash (—) indicates the compound was not tested.

[2] = tested on: Botrytis cinerea; assay: Test E: test suspension sprayed on tomato seedlings, inoculated next day with Botrytis cinerea (tomato Botrytis); visual disease rating (100 = 100% disease control, 0 = no control; dash = not tested)
Protocol: (§1) The resulting test suspensions were then used in Tests A-F. The test suspension was sprayed to the point of run-off on tomato seedlings. The following day the seedlings were inoculated with a spore suspension of Botrytis cinerea (the causal agent of tomato Botrytis) and incubated in a saturated atmosphere at 20° C. for 48 h, and then moved to a growth chamber at 24° C. for 3 days, after which time visual disease ratings were made. A rating of 100 indicates 100% disease control and a rating of 0 indicates no disease control (relative to the controls). A dash (—) indicates the compound was not tested.

[3] = tested on: Alternaria solani; assay: Test F: test suspension sprayed on tomato seedlings, inoculated next day with Alternaria solani (tomato early blight); visual disease rating (100 = 100% disease control, 0 = no control; dash = not tested)
Protocol: as §1, with “Alternaria solani” for “Botrytis cinerea”, “early blight)” for “Botrytis)”, “27°” for “20°”, “20°” for “24°”

[4] = tested on: Phakopsora pachyrhizi; assay: Test D: test solution sprayed on soybean seedlings, inoculated next day with Phakopsora pachyrhizi (Asian soybean rust); visual disease rating (100 = 100% disease control, 0 = no control; dash = not tested)
Description: General protocol for preparing test suspensions for Tests A-F: the test compounds were first dissolved in acetone in an amount equal to 3% of the final volume and then suspended at the desired concentration (in ppm) in acetone and purified water (50/50 mix by volume) containing 250 ppm of the surfactant PEG400 (polyhydric alcohol esters). The resulting test suspensions were then used in Tests A-F.
The test solution was sprayed to the point of run-off on soybean seedlings. The following day the seedlings were inoculated with a spore suspension of Phakopsora pachyrhizi (the causal agent of Asian soybean rust) and incubated in a saturated atmosphere at 22° C. for 24 h and then moved to a growth chamber at 22° C. for 8 days, after which time visual disease ratings were made.
A rating of 100 indicates 100% disease control and a rating of 0 indicates no disease control (relative to the controls). A dash (—) indicates the compound was not tested.

[5] = tested on: Blumeria graminis f. sp. tritici; assay: Test C: test suspension sprayed on wheat seedlings, inoculated next day with Blumeria graminis f. sp. tritici (wheat powdery mildew); visual disease rating (100 = 100% disease control, 0 = no control; dash = not tested)
Protocol: The resulting test suspensions were then used in Tests A-F. The test suspension was sprayed to the point of run-off on wheat seedlings. The following day the seedlings were inoculated with a spore dust of Blumeria graminis f. sp. tritici, (also known as Erysiphe graminis f. sp. tritici, the causal agent of wheat powdery mildew) and incubated in a growth chamber at 20° C. for 8 days, after which time visual disease ratings were made. A rating of 100 indicates 100% disease control and a rating of 0 indicates no disease control (relative to the controls). A dash (—) indicates the compound was not tested.

[6] = tested on: Puccinia recondita f. sp. tritici; assay: Test B: test solution sprayed on wheat seedlings, inoculated next day with Puccinia recondita f. sp. tritici (wheat leaf rust); disease rating (100 = 100% disease control, 0 = no control; dash = not tested)
Description: The resulting test suspensions were then used in Tests A-F. The test solution was sprayed to the point of run-off on wheat seedlings. […] A rating of 100 indicates 100% disease control and a rating of 0 indicates no disease control (relative to the controls). A dash (—) indicates the compound was not tested.

SMILES | Test A disease control rating ([1]; 250 ppm) [%] | Test E disease control rating ([2]; 250 ppm) [%] | Test F disease control rating ([3]; 250 ppm) [%] | Test D disease control rating ([4]; 250 ppm) [%] | Test C disease control rating ([5]; 250 ppm) [%] | Test B disease control rating ([6]; 250 ppm) [%] | Test A disease control rating ([1]; 50 ppm) [%] | Test E disease control rating ([2]; 50 ppm) [%] | Test F disease control rating ([3]; 50 ppm) [%] | Test D disease control rating ([4]; 50 ppm) [%] | Test C disease control rating ([5]; 50 ppm) [%] | Test B disease control rating ([6]; 50 ppm) [%] | further results
COc1cc(OC)cc(-c2nn(C)c(=O)cc2-c2ccc(F)cc2Cl)c1 [Compound 18] | 99 | 99 | 0 | 0 | 96 | 98 |  |  |  |  |  |  | 
CCN1N=C(c2cc(OC)cc(OC)c2)C(c2ccc(F)cc2Cl)CC1=O (stereo not drawn) [Compound 19] | 0 | 0 | 0 | 0 | 0 | 0 |  |  |  |  |  |  | 
COc1cc(OC)cc(C2=NN(C)C(=O)CC2c2ccc(F)cc2Cl)c1 (stereo not drawn) [Compound 20] | 51 | 31 | 0 | 0 | 21 | 9 |  |  |  |  |  |  | 
COc1cc(OC)cc(-c2nn(C)c(=O)c(C)c2-c2c(F)cccc2F)c1 [Compound 21, 5-(2,6-difluorophenyl)-6-(3,5-dimethoxyphenyl)-2,4-dimethyl-3 (2H)-pyridazinone] |  |  |  |  |  |  |  |  |  |  |  |  | pest or weed control at 250 ppm ([1]; 250 ppm): 100%; pest or weed control at 250 ppm ([2]; 250 ppm): 100%; pest or weed control at 250 ppm ([3]; 250 ppm): 99%; pest or weed control at 250 ppm ([4]; 250 ppm): 100%; pest or weed control at 250 ppm ([5]; 250 ppm): 100%; pest or weed control at 250 ppm ([6]; 250 ppm): 100%
CCn1nc(-c2cc(OC)cc(OC)c2Cl)c(-c2c(F)cccc2F)c(C)c1=O [Compound 22] |  |  |  |  |  |  | 100 | 100 | 79 | 98 | 98 | 100 | 
CCn1nc(-c2c(F)cccc2F)c(-c2c(F)cccc2F)cc1=O [Compound 23] | 0 | 0 | 0 | 0 | 0 | 0 |  |  |  |  |  |  | 
CCn1nc(-c2ccc(F)cc2Cl)c(-c2ccc(F)cc2Cl)c(Cl)c1=O [Compound 24] | 100 | 100 | 0 | 0 | 93 | 80 |  |  |  |  |  |  | 
CCn1nc(-c2cc(OC)cc(OC)c2)c(-c2ccc(F)cc2Cl)cc1=O [Compound 26] | 12 | 99 | 0 | 0 | 96 | 55 |  |  |  |  |  |  | 
COc1cc(F)cc(-c2nn(C)c(=O)cc2-c2c(F)cccc2F)c1 [Compound 27] | 99 | 96 | 0 | 56 | 97 | 99 |  |  |  |  |  |  | 
Cn1nc(-c2cc(F)ccc2Cl)c(-c2c(F)cccc2F)cc1=O [Compound 28] | 100 | 100 | 0 | 0 | 100 | 100 |  |  |  |  |  |  | 
Cn1nc(-c2cccc(F)c2Cl)c(-c2c(F)cccc2F)cc1=O [Compound 29] | 100 | 100 | 0 | 25 | 99 | 98 |  |  |  |  |  |  | 
COc1cccc(-c2nn(C)c(=O)cc2-c2c(F)cccc2F)c1Cl [Compound 30] | 100 | 100 | 41 | 98 | 84 | 99 |  |  |  |  |  |  | 
COc1cc(OC)c([N+](=O)[O-])c(-c2nn(C)c(=O)cc2-c2c(F)cccc2F)c1Cl [Compound 31] |  |  |  |  |  |  | 0 | 0 | 0 | 0 | 0 | 9 | 
CCn1nc(-c2cc(OC)cc(OC)c2)c(-c2c(F)cccc2F)cc1=O [Compound 32] | 0 | 80 | 0 | 0 | 29 | 9 |  |  |  |  |  |  | 
CCc1c(-c2ccc(F)cc2Cl)c(-c2c(Cl)c(OC)cc(OC)c2Br)nn(C)c1=O [Compound 45] |  |  |  |  |  |  | 0 | 0 | 0 | 0 | 69 | 0 | 
CCc1c(-c2c(F)cccc2F)c(-c2c(F)cccc2F)nn(C)c1=O [Compound 46] |  |  |  |  |  |  | 99 | 88 | 99 | 0 | 95 | 98 | 
COc1cc(OC)c(Cl)c(-c2nn(C)c(=O)c(C)c2-c2ccc(F)cc2Cl)c1Cl [Compound 47] |  |  |  |  |  |  | 52 | 91 | 0 | 0 | 43 | 68 | 
COc1ccc(Cl)c(-c2nn(C)c(=O)c(OC)c2-c2ccc(F)cc2F)c1 [Compound 48] |  |  |  |  |  |  | 100 | 98 | 99 | 97 | 99 | 100 | 
Cn1nc(-c2cc(C#N)ccc2Cl)c(-c2ccc(F)cc2Cl)c(Cl)c1=O [Compound 49] |  |  |  |  |  |  | 100 | 96 | 99 | 96 | 98 | 100 | 
